The test system of the experiment is BDF1 mice, Friend leukemia sc, tumor weight T/C. The experiment can be described thus: NCI In Vivo Anticancer Drug Screen. Data for tumor model Friend Virus Leukemia (Solid) (subcutaneous) in B6D2F1 (BDF1) mice. Conditions: endpoint: mean tumor weight, higher = larger tumour. On the procedure:
The antitumor activity of compounds was measured in mice bearing transplantable tumors. Survival or tumor size were measured and the results are expressed as the measurement made in the treated group (T) divided by the measurement made in the vehicle treated control group (C). The tumor model used in this assay is Friend Virus Leukemia (Solid) (subcutaneous) in B6D2F1 (BDF1) mice

Setting [1] is: dose: 125.0 mg/kg/injection, schedule: Q01DX011 (ip), vehicle: carboxymethylcellulose (CMC).
[2] abbreviates: dose: 25.0 mg/kg/injection, schedule: Q01DX011 (ip), vehicle: carboxymethylcellulose (CMC).
Where [3] appears, read: dose: 50.0 mg/kg/injection, schedule: Q01DX011 (ip), vehicle: carboxymethylcellulose (CMC).
Where [4] appears, read: dose: 250.0 mg/kg/injection, schedule: Q01DX011 (ip), vehicle: carboxymethylcellulose (CMC).
Where [5] appears, read: dose: 75.0 mg/kg/injection, schedule: Q01DX011 (ip), vehicle: carboxymethylcellulose (CMC).
Where [6] appears, read: dose: 60.0 mg/kg/injection, schedule: Q01DX011 (ip), vehicle: carboxymethylcellulose (CMC).

Where “and” joins values, the source holds several entries; their conditions need not be identical. Identical values can stand only once. Records with an inconclusive call do not appear.

Regarding `CC(=O)OCC(=O)[C@@]1(O)CC[C@H]2[C@@H]3CCC4=CC(=O)CC[C@]4(C)[C@H]3C(=O)C[C@@]21C`, the T/C reads like this: (dose: 5.62 mg/kg/injection, schedule: Q01DX011 (sc), vehicle: steriod suspending solution) 59 % of control; (dose: 8.0 mg/kg/injection, schedule: Q01DX011 (sc), vehicle: steriod suspending solution) 97 % of control; (dose: 11.25 mg/kg/injection, schedule: Q01DX011 (sc), vehicle: steriod suspending solution) 33 % of control; (dose: 16.0 mg/kg/injection, schedule: Q01DX011 (sc), vehicle: steriod suspending solution) 69 % of control; (dose: 22.5 mg/kg/injection, schedule: Q01DX011 (sc), vehicle: steriod suspending solution) 21 % of control; (dose: 31.0 mg/kg/injection, schedule: Q01DX011 (sc), vehicle: steriod suspending solution) 15 % of control and 29 % of control (2×). Moreover, the T/C (dose: 34.0 mg/kg/injection, schedule: Q01DX011 (sc), vehicle: steriod suspending solution) is 50 % of control; the T/C (dose: 45.0 mg/kg/injection, schedule: Q01DX011 (sc), vehicle: steriod suspending solution) was 13 % of control; the T/C (dose: 62.0 mg/kg/injection, schedule: Q01DX011 (sc), vehicle: steriod suspending solution) is 7 % of control and 9 % of control and 18 % of control; the T/C (dose: 68.0 mg/kg/injection, schedule: Q01DX011 (sc), vehicle: steriod suspending solution) was 28 % of control; the T/C (dose: 125.0 mg/kg/injection, schedule: Q01DX011 (sc), vehicle: steriod suspending solution) was 3 % of control and 15 % of control and 20 % of control; the T/C (dose: 250.0 mg/kg/injection, schedule: Q01DX011 (sc), vehicle: steriod suspending solution) is 3 % of control and 6 % of control and 20 % of control.

`O=[As]O`: the T/C is 78 % of control (dose: 1.6 mg/kg/injection, schedule: Q01DX011 (ip), vehicle: carboxymethylcellulose (CMC)); 77 % of control (dose: 3.25 mg/kg/injection, schedule: Q01DX011 (ip), vehicle: carboxymethylcellulose (CMC)); 98 % of control (dose: 6.5 mg/kg/injection, schedule: Q01DX011 (ip), vehicle: carboxymethylcellulose (CMC)); 46 % of control (dose: 13.0 mg/kg/injection, schedule: Q01DX011 (ip), vehicle: carboxymethylcellulose (CMC)).

With `NC(=O)c1ccc(NC(=O)CCC(=O)Nc2ccc(C(N)=O)cn2)nc1`, the T/C by setting is: (dose: 0.5 mg/kg/injection, schedule: Q01DX011 (ip), vehicle: saline) 106 % of control; (dose: 1.0 mg/kg/injection, schedule: Q01DX011 (ip), vehicle: saline) 117 % of control; (dose: 2.0 mg/kg/injection, schedule: Q01DX011 (ip), vehicle: saline) 106 % of control; (dose: 4.0 mg/kg/injection, schedule: Q01DX011 (ip), vehicle: saline) 57 % of control.

As for `CCOc1ccc2nc(S(N)(=O)=O)sc2c1`, the T/C reads like this: (dose: 62.0 mg/kg/injection, schedule: Q01DX011 (ip), vehicle: carboxymethylcellulose (CMC)) 77 % of control; under setting [1], 89 % of control.

For `COC(=O)/C=C\C(=O)O` (tested in a mixture with another compound), the T/C is, setting by setting: (dose: 14.0 mg/kg/injection, schedule: Q#A X022 (ip), vehicle: carboxymethylcellulose (CMC)) 88 % of control; (dose: 28.0 mg/kg/injection, schedule: Q#A X022 (ip), vehicle: carboxymethylcellulose (CMC)) 92 % of control; (dose: 31.0 mg/kg/injection, schedule: Q#A X022 (ip), vehicle: carboxymethylcellulose (CMC)) 68 % of control; (dose: 56.0 mg/kg/injection, schedule: Q#A X022 (ip), vehicle: carboxymethylcellulose (CMC)) 49 % of control; (dose: 62.5 mg/kg/injection, schedule: Q#A X022 (ip), vehicle: carboxymethylcellulose (CMC)) 36 % of control.

Take `S=c1nc[nH]c2c1ncn2C1CCCO1` (centres undefined): the T/C (dose: 0.75 mg/kg/injection, schedule: Q01DX011 (ip), vehicle: carboxymethylcellulose (CMC)) is 79 % of control; the T/C (dose: 1.5 mg/kg/injection, schedule: Q01DX011 (ip), vehicle: carboxymethylcellulose (CMC)) was 65 % of control; the T/C (dose: 6.0 mg/kg/injection, schedule: Q01DX011 (ip), vehicle: carboxymethylcellulose (CMC)) was 54 % of control and 35 % of control; the T/C (dose: 12.0 mg/kg/injection, schedule: Q01DX011 (ip), vehicle: carboxymethylcellulose (CMC)) is 27 % of control and 45 % of control; the T/C under setting [2] is 9 % of control and 10 % of control; the T/C under setting [3] was 2 % of control and 20 % of control. For the same compound, the T/C (dose: 100.0 mg/kg/injection, schedule: Q01DX011 (ip), vehicle: carboxymethylcellulose (CMC)) was 1 % of control and 3 % of control.

`CCc1nc(N)nc(N)c1-c1ccc(Cl)cc1`: the T/C runs as follows: (dose: 6.25 mg/kg/injection, schedule: Q01DX011 (ip), vehicle: carboxymethylcellulose (CMC)) 124 % of control; (dose: 12.5 mg/kg/injection, schedule: Q01DX011 (ip), vehicle: carboxymethylcellulose (CMC)) 85 % of control; under setting [2], 113 % of control; under setting [3], 95 % of control.

For the compound `COc1cc(OC)c(OC)cc1/C=C\c1ccnc2ccccc12`, the T/C was 78 % of control (dose: 63.0 mg/kg/injection, schedule: Q01DX011 (ip), vehicle: carboxymethylcellulose (CMC)); 60 % of control under setting [1]; 64 % of control under setting [4]; 52 % of control (dose: 500.0 mg/kg/injection, schedule: Q01DX011 (ip), vehicle: carboxymethylcellulose (CMC)).

Turning to `CC1CCOS(=O)O1` (centres undefined), the T/C was 123 % of control (dose: 10.0 mg/kg/injection, schedule: Q01DX011 (ip), vehicle: carboxymethylcellulose (CMC)); 84 % of control (dose: 20.0 mg/kg/injection, schedule: Q01DX011 (ip), vehicle: carboxymethylcellulose (CMC)); 72 % of control (dose: 40.0 mg/kg/injection, schedule: Q01DX011 (ip), vehicle: carboxymethylcellulose (CMC)); 32 % of control (dose: 80.0 mg/kg/injection, schedule: Q01DX011 (ip), vehicle: carboxymethylcellulose (CMC)).

In the case of `Clc1ccc2c(Cl)ncnc2c1`, the T/C was 96 % of control (dose: 19.0 mg/kg/injection, schedule: Q01DX011 (ip), vehicle: carboxymethylcellulose (CMC)); 59 % of control (dose: 37.5 mg/kg/injection, schedule: Q01DX011 (ip), vehicle: carboxymethylcellulose (CMC)); 31 % of control under setting [5].

For `O=P(c1ccccc1)(N1CC1)N1CC1`, the T/C is, setting by setting: (dose: 6.0 mg/kg/injection, schedule: Q01DX011 (ip), vehicle: saline) 106 % of control; (dose: 12.0 mg/kg/injection, schedule: Q01DX011 (ip), vehicle: saline) 124 % of control; (dose: 24.0 mg/kg/injection, schedule: Q01DX011 (ip), vehicle: saline) 80 % of control.

Turning to `CCC1=C(c2cc(Cl)c3ccccc3c2OCC(=O)O)OC(CC)(C(=O)c2cc(Cl)c3ccccc3c2OCC(=O)O)CC1` (centres undefined), the T/C is 52 % of control (dose: 30.0 mg/kg/injection, schedule: Q01DX011 (ip), vehicle: carboxymethylcellulose (CMC)); 55 % of control under setting [6]; 63 % of control (dose: 120.0 mg/kg/injection, schedule: Q01DX011 (ip), vehicle: carboxymethylcellulose (CMC)); 66 % of control (dose: 240.0 mg/kg/injection, schedule: Q01DX011 (ip), vehicle: carboxymethylcellulose (CMC)).

In the case of `CN(C)c1ccc(/C=C/c2ccnc3ccccc23)cc1`, the T/C reads like this: (dose: 37.5 mg/kg/injection, schedule: Q01DX011 (ip), vehicle: saline) 73 % of control; (dose: 50.0 mg/kg/injection, schedule: Q01DX011 (ip), vehicle: saline) 51 % of control.

As to `C[C@H]1C(=O)O[C@@H]2CCN3CC=C(COC(=O)[C@](C)(O)[C@@]1(C)O)[C@H]23`, the T/C runs as follows: (dose: 31.0 mg/kg/injection, schedule: Q01DX011 (ip), vehicle: carboxymethylcellulose (CMC)) 95 % of control; (dose: 62.5 mg/kg/injection, schedule: Q01DX011 (ip), vehicle: carboxymethylcellulose (CMC)) 61 % of control; under setting [1], 66 % of control; under setting [4], 38 % of control.

With `NNC(=O)c1nsnc1NC(N)=O`, the T/C runs as follows: (dose: 43.0 mg/kg/injection, schedule: Q01DX011 (ip), vehicle: carboxymethylcellulose (CMC)) 53 % of control; under setting [6], 46 % of control.

Take `ClCCn1cnc2c(SCc3ccccc3)ncnc21`: the T/C (dose: 18.0 mg/kg/injection, schedule: Q01DX011 (ip), vehicle: carboxymethylcellulose (CMC)) was 85 % of control; the T/C (dose: 37.0 mg/kg/injection, schedule: Q01DX011 (ip), vehicle: carboxymethylcellulose (CMC)) is 35 % of control; the T/C under setting [5] is 32 % of control; the T/C (dose: 150.0 mg/kg/injection, schedule: Q01DX011 (ip), vehicle: carboxymethylcellulose (CMC)) is 11 % of control and 35 % of control; the T/C (dose: 300.0 mg/kg/injection, schedule: Q01DX011 (ip), vehicle: carboxymethylcellulose (CMC)) is 4 % of control.

For the origin of these results see PubChem BioAssay AID228 (DTP/NCI, 2004).
